Data on 12 compounds can be found in the OPERA property sets (Mansouri et al. 2018).

For this series the following is noted: for solubility: 20 °C.

Structures are written as SMILES. In brackets after ≈: the same amount, converted by molar mass.

Regarding `O=[N+]([O-])c1cc(Cl)ccc1O`, the logP (as a rule, the decadic logarithm of the partition coefficient of the neutral form, usually between octanol and water) came out at 2.46; the solubility (commonly the dissolved amount per volume that the medium holds) is 812 µM (≈ 141 µg/mL).
For `CCC(C)c1ccc(O)c([N+](=O)[O-])c1` (stereo not given), in that order: 3.84 and 144 µM (≈ 28.2 µg/mL).
As for `Cc1cc(O)c([N+](=O)[O-])cc1Cl`, the lipophilicity (logP) was 2.93 and the solubility is 40.7 µM (≈ 7.64 µg/mL).
In turn, `O=[N+]([O-])c1cc(C(F)(F)F)ccc1O` had a logP of 2.34.
Regarding `Cc1ccc([N+](=O)[O-])c(O)c1`, the logP stood at 2.31 and the solubility turned out to be 1780 µM (≈ 272 µg/mL).
On the same counts, the results for `O=Cc1ccc(O)c([N+](=O)[O-])c1` are 1.48 and 1120 µM (≈ 187 µg/mL).
As to `O=[N+]([O-])c1ccc(F)cc1O`, the logP came out at 1.91.
`COc1ccc(O)c([N+](=O)[O-])c1` showed a lipophilicity (logP) of 2.02 and a solubility of 1450 µM (≈ 245 µg/mL).
For `Cc1cc(O)ccc1[N+](=O)[O-]`, in that order: 2.48 and 7760 µM (≈ 1190 µg/mL).
For `O=[N+]([O-])c1cc(-c2ccccc2)ccc1O`, the logP is 3.71 and the solubility is 38.9 µM (≈ 8.37 µg/mL).
In turn, `O=[N+]([O-])c1ccc(O)cc1` showed a solubility of 83400 µM (≈ 11600 µg/mL).
As for `Cc1cccc(O)c1[N+](=O)[O-]`, the logP worked out at 2.29.
